Reference: paper PMC11546719, “Immune Modulatory Profile of the Pateamines PatA and Des-Methyl Des-Amino PatA” (International Journal of Molecular Sciences, 2024)

Legend:
[1] = Transport assay, porous membrane without cell barrier; type: in vitro ADME; details: 100 nM; for Transport rate without a cell barrier: apical to basolateral
Caco-2 cell barrier = experiment: Transport assay, Caco-2 cell barrier; type: in vitro ADME; details: for Permeability / transport rate across Caco-2 cell barrier (in words): 4 and 24 h, PatA, DMDA 5, 50, 100 nM, controls 200 µM
Experimental: The transport assay was achieved as described previously. Briefly, 1 × 10^5 CaCo-2 or 5 × 10^4 Calu-3 cells in 300 µL medium were seeded on 24-well ThinCerts (pre-coated with FCS for 60 min) and in the lower compartment, 1 mL culture medium per well was added. The Caco-2 cell barrier was generated over 20 days and the Calu-3 barrier was generated over 14 days. DMDA (0 nM, 5 nM, 50 nM, 100 nM), PatA (0 nM, 5 nM, 50 nM, 100 nM), 200 µM famotidine, 200 µM lucifer yellow or 200 µM carbamazepine diluted in medium was added to the apical compartment and incubated for 4 h or 24 h. The medium from the basolateral and apical compartment was collected and stored at −20 °C and analyzed using LC-MS/MS. To obtain the transport rate, the drug amount in the basolateral compartment at 4 h or 24 h was related to the drug amount in the apical compartment (0 h).
The detailed method for the analysis of DMDA, PatA, carbamazepine and famotidine using LC-MS/MS is described in the Supplementary Materials.

TK6 cells = experiment: Micronuclei assay; type: cell-based, human; details: 4 h incubation then 44 h
Experimental: The In-Vitro Micronuclei Plus assay (Becton Dickinson, Heidelberg, Germany) was performed as described by the supplier. Briefly, 2 × 10^4 TK6 cells were incubated with increasing concentrations of PatA, DMDA and silvestrol for 4 h. The cells were washed with PBS and incubated in fresh medium (without test substance) for 44 h. The cells were centrifuged (300× g) for 5 min, the […] and placed on ice for 20 min. Then, 50 µL of Complete Nucleic Acid Dye A Solution was added. The plate was placed on ice and exposed to visible light for 30 min. The Nucleic Acid Dye A solution was removed and the cells were washed with 0.15 mL of cold 1x Buffer Solution. An amount of 100 µL Complete Lysis Solution 1 was added, followed by gently mixing of the plate for 5 s and incubation of 1 h in the dark at 37 °C. Then, 100 µL Complete Lysis Solution 2 was added and incubated for 30 min in the dark at room temperature. The cells were analyzed via flow cytometry with the MACSQuant 10 (Miltenyi GmbH, Bergisch Gladbach, Germany).

Human primary B cells = experiment: B cell activation with IL-21, sCD40L, CpG and anti-IgM; type: cell-based; details: for B cell activation (formation of plasma cells, proliferation, release of IgGs) / Cell viability (zombie staining): activated B cells, 5 days; for Effect on the release of inflammatory markers, B Cells: summary table
Experimental: B cells were activated as described by Khoenkhoen et al.. […].
Surface marker analysis was performed as described previously. Briefly, 1.5–2 × 10^5 cells of each sample were blocked with human FcR Blocking Reagent (15 min, 4 °C). […]. Afterwards, samples were stained with a mixture of different surface marker antibodies (15 min, 4 °C) and measured with MACSQuant® Analyzer 10 flow cytometer. For M1-/M2-MdMs anti-CD86, anti-CD14, anti-HLA-DR, anti-CD206, anti-CD80, anti-TREM2 and anti-CD163 were used. For T cells, anti-CD69, anti-CD54, anti-CD49a, anti-CD18, anti-CD134, anti-CD154, anti-CD3 and anti-CD25 were analyzed. For B cells, anti-CD27, anti-CD19 and anti-CD38 were applied. For T cell and B cell proliferation assay, freshly isolated T and B cells were stained with CTV and detected using flow cytometry. Naïve B cells were characterized as CD19^+CD27^lowCD38^med, memory B cells as CD19^+CD27^med CD38^low and plasma cells as CD27^+CD38^+ cells. M1 MdMs and M2 MdMs cell population was gated using FSC/SSC channel. T cells were gated as CD3^+CD25^+ positive cells. The geometric mean of the fluorescent intensity was calculated using FlowJo software v10 (Treestar, Ashland, […], USA). Fold induction of surface marker expression was calculated using the DMSO-treated cells as the control.
(§1) For determination of cytokine concentrations in the supernatant of humane immune cells, cytometric bead array (BD Biosciences, Heidelberg, Germany) for IL-10, IL-17, IL-8, IL-6, IFN-γ and CCL2 was used. For the detection of CCL18, CCL17, IgG, IgA and PGE2, an ELISA was performed. The cytometric bead arrays and the ELISAs were performed according to the protocol of the supplier.

Human primary T cells = experiment: T cell activation with anti-CD3/anti-CD28; type: cell-based; details: for Number of activated cells (CD3+CD25+CD69+ cells) / Proliferation rate (CTV) / Surface marker expression (CD69, CD154, CD134, CD25, CD18, CD49a, CD54) / Apoptosis (zombie staining) / Cytokine release (IL-17A, IL-10, IFN-γ): activated T cells, 5 days; for Apoptosis (zombie staining): 0.25-0.5 nM; for Cytokine release (IL-17A, IL-10, IFN-γ): CBA; for Effect on the release of inflammatory markers, T Cells: summary table
Experimental: T cells were activated as previously described. Briefly, 1.75 × 10^5 T cells (stained with 0.2 µM CellTrace^TM violet (CTV) (ThermoFisher Scientific, Schwerte, Germany)) per well were pretreated with PatA (0.25, 0.5 nM), DMDA (0.25, 0.5 nM) or vehicle (DMSO) for 30 min in RPMI 1640 medium supplemented with 2 mM glutamine, 50 Units/mL IL-2, 1% penicillin/streptomycin and 10% FCS. Afterwards, they were seeded in CD3-coated 96-well plates and stimulated with 2 µg/mL CD28 for 5 days. CTV staining was performed according to the protocol of supplier.
Surface marker analysis was performed as described previously. Briefly, 1.5–2 × 10^5 cells of each sample were blocked with human FcR Blocking Reagent (15 min, 4 °C). A Zombie Aqua™ Fixable Viability Kit (1:500 dilution, BioLegend, San Diego, CA, USA) was used according to the manufactory protocol to discriminate living and dead cells. Afterwards, samples were stained with a mixture of different surface marker antibodies (15 min, 4 °C) and measured with MACSQuant® Analyzer 10 flow cytometer. For M1-/M2-MdMs anti-CD86, anti-CD14, anti-HLA-DR, anti-CD206, anti-CD80, anti-TREM2 and anti-CD163 were used. For T cells, anti-CD69, anti-CD54, anti-CD49a, anti-CD18, anti-CD134, anti-CD154, anti-CD3 and anti-CD25 were analyzed. For B cells, anti-CD27, anti-CD19 and anti-CD38 were applied. For T cell and B cell proliferation assay, freshly isolated T and B cells were stained with CTV and detected using flow cytometry. Naïve B cells were characterized as CD19^+CD27^lowCD38^med, memory B cells as CD19^+CD27^med CD38^low and plasma cells as CD27^+CD38^+ cells. M1 MdMs and M2 MdMs cell population was gated using FSC/SSC channel. T cells were gated as CD3^+CD25^+ positive cells. The geometric mean of the fluorescent intensity was calculated using FlowJo software v10 (Treestar, Ashland, […], USA). Fold induction of surface marker expression was calculated using the DMSO-treated cells as the control.
as §1

| SMILES | Transport rate without a cell barrier ([1]; 4 h) | Transport rate without a cell barrier ([1]; 24 h) [%] | Transport rate with Caco-2 cell barrier (Caco-2 cell barrier; 100 nM, 24 h) | Permeability / transport rate across Caco-2 cell barrier (in words) (Caco-2 cell barrier) | Genotoxic potential: micronuclei (clastogenic) and hypodiploid cells (aneugenic) (TK6 cells) | B cell activation (formation of plasma cells, proliferation, release of IgGs) (Human primary B cells) | Cell viability (zombie staining) (Human primary B cells) | Effect on the release of inflammatory markers, B Cells (Human primary B cells) | Number of activated cells (CD3+CD25+CD69+ cells) (Human primary T cells) | Proliferation rate (CTV) (Human primary T cells) | Surface marker expression (CD69, CD154, CD134, CD25, CD18, CD49a, CD54) (Human primary T cells) | Apoptosis (zombie staining) (Human primary T cells) | Cytokine release (IL-17A, IL-10, IFN-γ) (Human primary T cells) | Effect on the release of inflammatory markers, T Cells (Human primary T cells) | Stability in the media under transport assay conditions ([1]; inferred from transport without cell barrier) | Genotoxic potential: micronuclei (clastogenic) and hypodiploid cells (aneugenic) (TK6 cells; 10 nM) | B cell activation (formation of plasma cells, proliferation, release of IgGs) (Human primary B cells; 0.5 nM) |
| --- | --- | --- | --- | --- | --- | --- | --- | --- | --- | --- | --- | --- | --- | --- | --- | --- | --- |
| CC(/C=C/C(C)=C/[C@@H]1Cc2nc(cs2)CCCCC(=O)O[C@@H](C)C/C(C)=C/C=C\C(=O)O1)=C\CN(C)C [DMDA, des-methyl des-amino pateamine A] | about 28% | ~41 | about 6% | exhibited low permeability | induced neither clastogenic nor aneugenic effects | did not prevent B cell activation | did not reduce cell viability | No effect | did not influence the number of activated cells | Neither had any effects | Neither had any effects | showed no apoptotic effects | Neither had any effects | No effect | – | – | – |
| CC(/C=C/C(C)=C/[C@@H]1Cc2nc(cs2)[C@@H](C)C[C@@H](N)CC(=O)O[C@@H](C)C/C(C)=C/C=C\C(=O)O1)=C\CN(C)C [PatA, pateamine A] | about 28% | – | – | no permeability was detected | – | – | did not reduce cell viability | IgA↓, IgG↓ | did not influence the number of activated cells | Neither had any effects | Neither had any effects | showed no apoptotic effects | Neither had any effects | No effect | probably unstable in the media | induced clastogenic effects | showed similar effects to those of rapamycin |
